Test results published in patent US20250099534A1, “UBIQUITIN HIGH AFFINITY CYCLIC PEPTIDES AND METHODS OF USE THEREOF” (TECHNION RESEARCH & DEVELOPMENT FOUNDATION LIMITED, priority 2022, published 2025).
Where two headings read alike, the source gives them in different places. Values belong to the compound of their own block, whether it stands above or below them. Starred links: 1 amine or outer side, 2 acyl side, 3 side chain; linkers in the order of their positions; H or OH if unused. Positions of bridges follow the written chain, without caps; N, C: chain ends. Residues, ends and D or L forms follow the SMILES beside them. *: point of attachment. Fluorescein(5-Mal) = O=C1OC2(c3ccc(O)cc3Oc3cc(O)ccc32)c2ccc(N3C(=O)CC(*)C3=O)cc21; X2 = CN(C)c1ccc2c(c1)Oc1cc(N(C)C)ccc1C21OC(=O)c2cc(N3C(=O)CC(*)C3=O)ccc21; X1 = O=C(c1cccc(C[*:2])c1)[*:1]

Legend:
U2OS cells [1] = test system: U2OS cells
Description: (§1) Cells were seeded for 24 h on ibidi 8 well μ-slides treated with poly-L-lysine to reach ˜90% confluency. Cells were then washed three times with warm PBS followed by incubation for 1 h with warm serum-free medium (DMEM) containing peptides. Thereafter, cells were washed two times with warm PBS. Prior to imaging, cells were washed with an optical culture medium and stained with Hoechst (2 μg/ml). Live cell CLSM images were captured using Confocal Zeiss LSM 710 equipped with 40×NA 1.2 water immersion objective lens using a 1 AU pinhole settings. Different lasers were used for the different tags (Hoechst, TAMRA, FITC), and during analysis, the μ-slide was kept at 37° C. in a humidified chamber.

U2OS cells [2] = assay: Cell uptake studies by live-cell confocal microscopy; conditions: 2 μM
Description: as §1

[3] = Solubility in buffer (aq.) medium; type: physicochemical

cell-permeability / delivery to live cells (U2OS cells [1]): did not observe an efficient delivery
SMILES: CC[C@H](C)[C@@H]1NC(=O)[C@H](Cc2c[nH]c3ccccc23)NC(=O)[C@H]([C@@H](C)CC)NC(=O)[C@H](CC(C)C)NC(=O)[C@H](CS)NC(=O)c2cccc(c2)CSC[C@@H](C(=O)NCC(=O)N[C@@H](C)C(=O)N[C@@H](CSC2CC(=O)N(c3ccc4c(c3)C(=O)OC43c4ccc(O)cc4Oc4cc(O)ccc43)C2=O)C(N)=O)NC(=O)[C@H](CC(C)C)NC(=O)[C@H]([C@@H](C)CC)NC(=O)[C@H](Cc2ccc(O)cc2)NC(=O)[C@@H]2CCCN2C(=O)[C@H](CC(N)=O)NC(=O)[C@H](CCCCN)NC(=O)[C@H](CO)NC(=O)[C@H](CO)NC(=O)CNC1=O (stereo partly drawn) [cyclic peptide 29] (CLIWIGSSKNPYILCGAC(Fluorescein(5-Mal))-NH2; linker N-15 via X1)

SMILES: CC[C@H](C)[C@@H]1NC(=O)[C@H](Cc2c[nH]c3ccccc23)NC(=O)[C@H]([C@@H](C)CC)NC(=O)[C@H](CC(C)C)NC(=O)[C@H](CS)NC(=O)c2cccc(c2)CSC[C@@H](C(=O)NCC(=O)N[C@@H](C)C(=O)N[C@@H](CSC2CC(=O)N(c3ccc4c(c3)C(=O)OC43c4ccc(N(C)C)cc4Oc4cc(N(C)C)ccc43)C2=O)C(N)=O)NC(=O)[C@H](CC(C)C)NC(=O)[C@H]([C@@H](C)CC)NC(=O)[C@H](Cc2ccc(O)cc2)NC(=O)[C@@H]2CCCN2C(=O)[C@H](CC(N)=O)NC(=O)[C@H](CCCCN)NC(=O)[C@H](CO)NC(=O)[C@H](CO)NC(=O)CNC1=O (stereo partly drawn) [cyclic peptide 26] (CLIWIGSSKNPYILCGAC(X2)-NH2; linker N-15 via X1)
cell-permeability / delivery to live cells (U2OS cells [2]): efficient cell-permeability

aqueous solubility [3]: poor aqueous solubility
SMILES: CC[C@H](C)[C@@H]1NC(=O)[C@H](Cc2c[nH]c3ccccc23)NC(=O)[C@H]([C@@H](C)CC)NC(=O)[C@H](CC(C)C)NC(=O)[C@H](CS)NC(=O)c2cccc(c2)CSC[C@@H](C(=O)NCC(N)=O)NC(=O)[C@H](CC(C)C)NC(=O)[C@H]([C@@H](C)CC)NC(=O)[C@H](Cc2ccc(O)cc2)NC(=O)[C@@H]2CCCN2C(=O)[C@H](CC(N)=O)NC(=O)[C@H](CCCCN)NC(=O)[C@H](CO)NC(=O)[C@H](CO)NC(=O)CNC1=O [cyclic peptide 2] (CLIWIGSSKNPYILCG-NH2; linker N-15 via X1)
